Reference: patent US10292989B2, “General anesthetics that are not neurotoxic” (University of Virginia Patent Foundation, priority 2014, dated 2019)

Tests used:
NMDA currents = settings: cited from earlier work
rat pups (PND7) [1] = assay: Lethality (LD50) in PND7 rat pups; settings: LD50 vs ED50 for LORR
[2] = Lethality (LD50) in PND7 rat pups; settings: rat, in vivo, ip
[3] = molecular target: T1, recombinant human Cav2.3 channels (Homo sapiens, UniProt Q15878); assay: Recombinant human Cav2.3 currents in HEK 293 cells; type: cell-based; settings: HEK293, read-out: inhibition of recombinant Cav2.3 currents (of control pre-drug values)
T1 construct: expressed in transfected cells
T1 sequence (Q15878 whole entry): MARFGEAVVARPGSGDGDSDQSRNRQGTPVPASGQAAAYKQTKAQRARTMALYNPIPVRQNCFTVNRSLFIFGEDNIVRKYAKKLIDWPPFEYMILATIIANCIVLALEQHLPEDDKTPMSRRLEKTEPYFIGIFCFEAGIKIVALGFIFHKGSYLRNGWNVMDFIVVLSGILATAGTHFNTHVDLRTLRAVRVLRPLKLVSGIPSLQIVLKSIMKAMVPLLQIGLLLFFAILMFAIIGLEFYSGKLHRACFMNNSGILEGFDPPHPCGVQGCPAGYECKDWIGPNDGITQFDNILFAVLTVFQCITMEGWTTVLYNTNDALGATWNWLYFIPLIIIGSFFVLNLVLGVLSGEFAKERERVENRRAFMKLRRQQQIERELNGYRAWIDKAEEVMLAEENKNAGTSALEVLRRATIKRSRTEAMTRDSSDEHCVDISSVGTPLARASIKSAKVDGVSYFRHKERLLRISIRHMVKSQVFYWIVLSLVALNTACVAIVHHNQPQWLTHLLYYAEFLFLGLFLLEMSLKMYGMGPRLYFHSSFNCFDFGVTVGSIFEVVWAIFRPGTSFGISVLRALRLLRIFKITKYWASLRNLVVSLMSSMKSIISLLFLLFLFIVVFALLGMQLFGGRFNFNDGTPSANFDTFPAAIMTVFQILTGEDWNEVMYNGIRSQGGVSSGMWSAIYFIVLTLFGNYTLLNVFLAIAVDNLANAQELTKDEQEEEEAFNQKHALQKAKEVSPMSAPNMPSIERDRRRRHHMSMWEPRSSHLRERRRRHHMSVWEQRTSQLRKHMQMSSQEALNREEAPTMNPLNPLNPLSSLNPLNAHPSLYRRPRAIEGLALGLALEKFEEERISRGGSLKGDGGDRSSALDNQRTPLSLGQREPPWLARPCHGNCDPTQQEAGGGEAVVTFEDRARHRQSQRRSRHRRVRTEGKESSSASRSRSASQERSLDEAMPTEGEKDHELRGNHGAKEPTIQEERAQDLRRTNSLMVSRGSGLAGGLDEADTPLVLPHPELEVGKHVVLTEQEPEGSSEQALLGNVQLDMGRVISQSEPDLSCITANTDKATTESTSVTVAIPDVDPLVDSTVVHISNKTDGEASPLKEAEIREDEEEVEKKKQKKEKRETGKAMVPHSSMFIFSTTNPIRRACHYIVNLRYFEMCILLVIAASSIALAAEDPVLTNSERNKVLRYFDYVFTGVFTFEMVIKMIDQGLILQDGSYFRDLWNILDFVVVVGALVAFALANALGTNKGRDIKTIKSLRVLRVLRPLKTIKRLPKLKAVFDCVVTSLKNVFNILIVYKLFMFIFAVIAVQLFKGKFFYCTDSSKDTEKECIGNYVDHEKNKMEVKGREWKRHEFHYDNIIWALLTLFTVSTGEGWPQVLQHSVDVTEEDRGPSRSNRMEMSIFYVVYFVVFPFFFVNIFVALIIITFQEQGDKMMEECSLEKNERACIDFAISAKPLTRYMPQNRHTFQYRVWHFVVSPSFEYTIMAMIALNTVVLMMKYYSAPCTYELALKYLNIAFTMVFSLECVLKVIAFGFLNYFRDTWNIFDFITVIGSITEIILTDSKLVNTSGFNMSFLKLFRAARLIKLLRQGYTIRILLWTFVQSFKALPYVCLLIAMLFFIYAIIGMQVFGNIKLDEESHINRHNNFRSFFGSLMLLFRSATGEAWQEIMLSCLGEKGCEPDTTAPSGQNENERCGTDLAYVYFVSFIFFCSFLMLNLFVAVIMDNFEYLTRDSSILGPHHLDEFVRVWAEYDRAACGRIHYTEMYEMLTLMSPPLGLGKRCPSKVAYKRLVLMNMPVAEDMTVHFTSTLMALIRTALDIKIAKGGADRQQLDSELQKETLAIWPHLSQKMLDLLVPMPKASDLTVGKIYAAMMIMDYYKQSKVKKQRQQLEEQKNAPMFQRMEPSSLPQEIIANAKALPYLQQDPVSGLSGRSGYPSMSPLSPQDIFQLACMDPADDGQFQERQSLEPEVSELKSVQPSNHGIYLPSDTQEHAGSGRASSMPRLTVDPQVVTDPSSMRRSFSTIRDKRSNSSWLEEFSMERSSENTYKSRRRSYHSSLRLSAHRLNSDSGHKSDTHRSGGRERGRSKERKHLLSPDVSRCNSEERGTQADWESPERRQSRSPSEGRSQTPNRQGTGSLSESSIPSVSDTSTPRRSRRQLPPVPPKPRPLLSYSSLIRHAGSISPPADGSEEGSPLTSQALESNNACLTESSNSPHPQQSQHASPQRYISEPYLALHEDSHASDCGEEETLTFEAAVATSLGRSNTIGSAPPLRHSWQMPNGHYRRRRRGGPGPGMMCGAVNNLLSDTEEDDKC
T1 sequence (P54284 whole entry partner): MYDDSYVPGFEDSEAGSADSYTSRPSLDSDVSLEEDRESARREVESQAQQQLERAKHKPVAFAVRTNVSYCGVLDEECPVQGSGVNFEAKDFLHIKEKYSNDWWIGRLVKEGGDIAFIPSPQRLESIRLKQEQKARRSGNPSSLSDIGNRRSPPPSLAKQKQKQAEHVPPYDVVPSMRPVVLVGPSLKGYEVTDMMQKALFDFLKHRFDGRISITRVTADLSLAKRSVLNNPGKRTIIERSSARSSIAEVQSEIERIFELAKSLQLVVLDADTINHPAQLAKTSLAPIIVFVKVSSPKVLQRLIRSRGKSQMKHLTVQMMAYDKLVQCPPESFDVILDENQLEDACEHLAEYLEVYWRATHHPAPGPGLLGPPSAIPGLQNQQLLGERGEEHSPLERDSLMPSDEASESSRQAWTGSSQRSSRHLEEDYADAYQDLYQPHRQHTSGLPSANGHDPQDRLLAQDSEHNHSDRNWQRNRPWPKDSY
Description: Here, we examined the sensitivity of recombinant human Cav2.3 channels stably expressed in human embryonic kidney (HEK) 293 cells to 3β-OH.

[4] = tested on: rats with hind paw incision; assay: Thermal hyperalgesia after plantar skin and deep tissue incision (PWL); type: in vivo, rat
Experimental: In order to study the potential role of neuroactive steroids in perioperative analgesia we used a model of a plantar incision of skin and deep tissue in the hind paw of rats. Starting 2 hours after operation, thermal hyperalgesia to nociceptive heat stimuli was assessed measuring thermal PWLs. As depicted in FIG. 5, thermal hyperalgesia is profound up to two days after surgery as evidenced by attenuated PWLs in incised (right) paws by about 70% when compared to unincised (left) paws in the same animals. This gradually resolved and returned to near preoperative baseline values within 7 days. Note that thermal PWLs in unincised paws remained stable during this period.
Next, we examined the ability of 3β-OH to influence thermal hyperalgesia in this rat model of perioperative pain. […] We applied the same dose of steroid or vehicle i.t. at 2, 24 and 48 hours after surgery and measured thermal PWLs in both paws (unincised paws, top panel of FIG. 6; incised paws, bottom panel of FIG. 6) at 30 minute intervals from 30-180 minutes after surgery in order to assess the time course and possible tolerance to any analgesic and antihyperalgesic effect of 3β-OH. FIG. 6 summarizes average results from multiple animals (6-13 per group). It is noteworthy that 3β-OH had little effect on thermal PWLs when compared to vehicle in incised paws when applied 2 hours after incision (bottom panel, filled round symbols) while in contralateral unincised paws (top panel, filled round symbols) the same dose induced analgesia at the 30 and 60 minute time points as evidenced by increased PWLs when compared to vehicle injections (top panel, filled circles). Furthermore, subsequent i.t. injections of 3β-OH at 24 hours (open squares) and 48 hours (filled triangles) induced long-lasting progressive anti-hyperalgesia in incised paws (bottom panel) with return of thermal PWLs to near baseline pre-incisional values measured at 180 minutes after injection (48 hours group). For example, at 48 hours post-surgery the average PWL of incised paws at 180 minutes post vehicle injection was about 4 seconds, while at 180 minutes post steroid injection PWLs were prolonged to about 9 seconds and approached pre-incisional values. In contrast, in unincised paws the same injections of 3β-OH induced analgesia of similar magnitude to the analgesia produced when steroid was injected 2 hours post-surgery, measuring in average 14-15 seconds on thermal PWLs (top panel).
We next tested the idea that locally applied 3β-OH may abolish thermal hyperalgesia after paw incision. For these experiments we first obtained baseline (pre-incision) thermal PWLs (about 10 seconds) and repeated measurements 2 hours after surgery (about 2.5 seconds). We then injected (arrow on FIG. 7A) directly into the incised paw either 16 μg or 48 μg of 3β-OH in 100 μl of saline that was pH adjusted to 7.4 (n=6 rats in each group). We recorded PWLs for three consecutive days after injections.
Note that PWLs in noninjected (unincised) paws (black squares and red diamonds) remained stable indicating lack of any systemic effect. […] For these experiments depicted on FIG. 7B, we first obtained pre-incision PWLs, and then injected 16 μg of 3β-OH repeatedly at the following time points: 2 hours, day 1, 2, 3 and 5 after post-surgery (n=6 rats). As shown on FIG. 7B (red symbols) repeated injections of steroid induced progressive anti-hyperalgesia from day 1 to day 5 post surgery with increase in PWLs from 50-90% when compared to PWLs in incised paws injected with vehicle (*, p<0.05; **, p<0.01; ***, p<0.001).

[5] = tested on: young adolescent rats (P20-29); assay: Loss of righting reflex (LORR) in young adolescent rats, i.p.; type: in vivo; settings: Rattus norvegicus, ip; rats of both sexes P20-29, i.p., 15% β-cyclodextrin; read-out: estimated ED50 for loss of righting reflex (LORR)
Experimental: (§2) For in vivo experiments, steroids were freshly dissolved in 15% β-cyclodextrin solution and injected intraperitoneally (i.p.) at escalating doses from 5 to 75 mg/kg.

rats [6] = assay: 8-arm radial arm maze (RAM) after exposure at PND7; type: in vivo, rat
Experimental: (§1) To assess cognitive abilities of our rats we tested their spatial working memory using the 8-arm radial arm maze test (RAM). We began by comparing the overall appearance and daily weight of rats in each group (saline, cyclodextrin, 3β-OH at 10 mg/kg and ketamine at 40 mg/kg) since nutritional status and general state of health are critically important for cognitive development. Based on their general appearance, rats in different groups could not be distinguished from each other. Similarly, there was no difference in daily weight gain among the groups (FIG. 13A). The time points when the animals were treated (PND 7), food restricted (from PND 45), tested on the RAM (from PND 53) and permitted to eat ad libitum (from PND 70) are indicated on the graph. Food restriction, a necessary component of the RAM learning protocol, was limited so that no rat lost more than 10%-15% of its body weight.
To further scrutinize how the acquisition rate of 3β-OH-treated rats compares to ketamine and vehicle groups, we plotted the cumulative percent scores for ketamine-treated animals relative to recorded cumulative percent scores for other groups, using a percent-percent plot (p-p plot) (FIG. 14). […] The learning behavior of 3β-OH-treated rats is similar to that of sham controls resulting in a large gap (shaded area) in learning ability between ketamine-treated (lower blue dotted line) and 3β-OH-treated animals (upper red dotted line). A slight slowing in the acquisition rate observed with 3β-OH-treated rats when compared to vehicle controls (saline—SAL and cyclodextrin—CYCL) during the mid-portion of training (as discussed in FIG. 13C) is highlighted with rectangles.

[7] = molecular target: T2, T-channels in rat DRG neurons (Rattus norvegicus, UniProt Q9EQ60); settings: cited from earlier work
T2 construct: endogenous in cells; host or cells: acutely dissociated rat DRG neurons
T2 sequence (Q9EQ60 whole entry): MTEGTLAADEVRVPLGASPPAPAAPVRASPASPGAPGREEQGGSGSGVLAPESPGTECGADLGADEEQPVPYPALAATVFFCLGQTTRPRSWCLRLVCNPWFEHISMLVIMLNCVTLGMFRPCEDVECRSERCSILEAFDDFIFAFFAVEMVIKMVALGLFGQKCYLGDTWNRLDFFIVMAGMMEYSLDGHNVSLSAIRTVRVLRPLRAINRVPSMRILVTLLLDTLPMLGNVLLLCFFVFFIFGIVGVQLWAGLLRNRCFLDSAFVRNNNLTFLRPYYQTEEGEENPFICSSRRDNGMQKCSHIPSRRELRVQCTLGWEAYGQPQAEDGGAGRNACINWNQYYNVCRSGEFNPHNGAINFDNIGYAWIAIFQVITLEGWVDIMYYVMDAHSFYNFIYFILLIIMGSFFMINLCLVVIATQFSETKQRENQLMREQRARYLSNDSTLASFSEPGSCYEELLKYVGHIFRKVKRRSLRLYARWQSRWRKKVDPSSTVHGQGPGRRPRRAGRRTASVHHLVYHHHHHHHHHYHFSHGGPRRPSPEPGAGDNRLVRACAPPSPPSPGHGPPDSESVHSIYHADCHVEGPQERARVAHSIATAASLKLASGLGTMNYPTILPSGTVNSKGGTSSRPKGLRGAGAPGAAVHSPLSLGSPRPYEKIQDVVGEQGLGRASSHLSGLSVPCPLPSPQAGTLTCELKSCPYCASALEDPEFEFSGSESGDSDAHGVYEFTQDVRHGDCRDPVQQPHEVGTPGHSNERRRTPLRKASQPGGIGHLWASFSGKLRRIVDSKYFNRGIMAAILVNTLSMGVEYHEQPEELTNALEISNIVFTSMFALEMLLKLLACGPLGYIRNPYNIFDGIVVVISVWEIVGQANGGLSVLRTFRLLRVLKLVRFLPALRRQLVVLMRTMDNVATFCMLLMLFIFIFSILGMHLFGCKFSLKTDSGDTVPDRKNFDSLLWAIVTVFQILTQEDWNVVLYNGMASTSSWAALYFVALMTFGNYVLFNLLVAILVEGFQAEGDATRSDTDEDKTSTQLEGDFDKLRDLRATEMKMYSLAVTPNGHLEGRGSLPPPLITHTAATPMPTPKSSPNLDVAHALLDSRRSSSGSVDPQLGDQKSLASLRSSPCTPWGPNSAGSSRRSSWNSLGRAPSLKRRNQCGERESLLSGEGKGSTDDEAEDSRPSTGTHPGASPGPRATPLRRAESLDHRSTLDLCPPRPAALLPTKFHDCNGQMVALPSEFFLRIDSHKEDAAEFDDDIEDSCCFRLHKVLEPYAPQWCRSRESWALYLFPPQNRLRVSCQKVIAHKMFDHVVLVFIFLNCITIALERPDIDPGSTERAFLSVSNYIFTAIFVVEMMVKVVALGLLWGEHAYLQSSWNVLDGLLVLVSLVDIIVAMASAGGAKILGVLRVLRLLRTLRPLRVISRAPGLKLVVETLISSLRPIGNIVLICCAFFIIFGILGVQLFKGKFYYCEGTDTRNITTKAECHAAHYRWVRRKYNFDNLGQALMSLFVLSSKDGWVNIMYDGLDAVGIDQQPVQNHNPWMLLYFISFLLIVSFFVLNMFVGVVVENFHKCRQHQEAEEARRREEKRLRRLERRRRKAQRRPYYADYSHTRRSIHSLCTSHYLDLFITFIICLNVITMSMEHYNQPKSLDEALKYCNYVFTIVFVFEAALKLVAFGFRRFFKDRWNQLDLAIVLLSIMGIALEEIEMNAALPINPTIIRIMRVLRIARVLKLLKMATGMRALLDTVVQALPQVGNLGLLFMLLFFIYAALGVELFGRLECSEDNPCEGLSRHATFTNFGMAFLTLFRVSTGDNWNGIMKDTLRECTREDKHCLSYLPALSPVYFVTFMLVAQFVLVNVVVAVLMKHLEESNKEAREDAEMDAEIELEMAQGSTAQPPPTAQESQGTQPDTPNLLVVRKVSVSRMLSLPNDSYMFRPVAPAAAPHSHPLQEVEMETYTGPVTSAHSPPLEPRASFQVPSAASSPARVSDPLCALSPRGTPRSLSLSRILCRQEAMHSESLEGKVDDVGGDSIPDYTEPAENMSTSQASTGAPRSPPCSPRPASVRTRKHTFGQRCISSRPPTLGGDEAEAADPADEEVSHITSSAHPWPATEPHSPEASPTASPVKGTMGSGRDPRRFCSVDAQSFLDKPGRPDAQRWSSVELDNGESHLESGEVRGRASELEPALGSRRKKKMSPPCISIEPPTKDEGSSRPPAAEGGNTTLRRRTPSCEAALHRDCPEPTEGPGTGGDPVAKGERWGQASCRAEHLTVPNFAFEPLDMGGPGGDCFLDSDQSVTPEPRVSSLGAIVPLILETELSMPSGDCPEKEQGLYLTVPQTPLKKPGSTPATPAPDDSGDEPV

adult monkeys = assay: Acute anesthetic doses in adult monkeys, cardiac arrhythmias; type: in vivo, monkey; settings: acute applications of anesthetic doses, preliminary study, data not shown
Description: Although no preclinical data are currently available on the long-term use of 3β-OH, ECN, and related neuroactive steroids, previous evaluation of the safety of non-steroidal blockers of T-channels such as TTA compounds in dogs has disclosed no cardiovascular side effects.

rats [8] = assay: Sensorimotor tests (inclined plane, platform, ledge); type: in vivo, rat; settings: 16 μg i.t., 60 min after injection
Experimental: b. 3β-OH induces potent dose-dependent spinally-mediated analgesia in naïve rats. To assess its potential for spinally mediated analgesia, we injected 4 escalating doses of 3β-OH i.t. (from 0.003 to 16 μg) dissolved in 50 μL of vehicle (15% β-cyclodextrin) and measured thermal PWLs at 30 minutes intervals up to 150 minutes after injections. […] The analgesic effect was long-lasting, with higher doses of 3β-OH increasing PWLs by about 25-30% at 150 minutes post-injections. Note that PWLs remained stable in both paws during injections of vehicle (red lines). We also considered the possibility that i.t. injected 3β-OH may non-specifically affect performance by decreasing motor strength and/or coordination. […] Rats (n=6), were tested using an inclined plane, platform, and ledge before injection of the highest dose of 3β-OH (16 μg i.t.) and at 60 min after injection, corresponding to the time of maximal analgesia (FIG. 4).

GABAA currents = settings: cited from earlier work
[9] = tested on: T-currents in nucleus reticularis thalami (nRT); settings: cited from earlier work
rat pups (PND7) [10] = assay: Loss of righting reflex (LORR) in PND7 rat pups, i.p.
[11] = tested on: activated caspase-3 in developing brain; assay: Activated caspase-3 staining of vulnerable brain regions in PND7 rat pups
[12] = tested on: adult female C57Bl/6 mice; assay: Loss of righting reflex (LORR) in adult female C57Bl/6 mice, i.p.; type: in vivo, mouse
Experimental: as §2

[13] = Daily weight gain after exposure at PND7; type: in vivo, rat; settings: 3β-OH at 10 mg/kg, ketamine at 40 mg/kg, treated PND 7
Experimental: as §1

adult naïve rats = assay: Thermal paw withdrawal latency after i.t. injection in naive rats; type: in vivo, rat
Experimental: a. […] We began by studying the role of postsynaptic T-channels in DH neurons using current-clamp recording from unidentified lamina I-II DH neurons in spinal cord slices in vitro. To exclude synaptic currents, our external solution contained 20 μM picrotoxin, 50 μM d-APV and 5 μM NBQX to block inhibitory and excitatory synaptic currents, respectively. We first injected −300 pA of current via the recording electrode for 500 ms, which hyperpolarized the resting membrane potential (RMP) and allowed T-channels to recover from inactivation. This protocol served to assess input resistance (Rin) and to evoke rebound action potential (AP) firing. The top line in FIG. 3A depicts the protocol of current injection while bottom traces represent membrane responses. […] To investigate the possible role of T-channels in spinal nociceptive transmission in vivo, we used intrathecal (i.t.) injections and measured thermal nociceptive responses to noxious heat in adult naïve rats using methods as we described elsewhere (Messinger et al., 2009; Obradovic et al., 2014, PLoS ONE 9(4): e91467. doi:10.1371/journal.pone.0091467). For i.t. injections, rats were briefly anesthetized with 1.5-2% isoflurane and thermal paw withdrawal latencies (PWLs) were measured starting from 30 minutes following injection. […]

C[C@]12CC[C@H](O)C[C@H]1CC[C@@H]1[C@@H]2CC[C@]2(C)[C@@H](C#N)CC[C@@H]12 [3β-OH, (3β,5β,17β)-3-hydroxyandrostane-17-carbonitrile]
effect on postsynaptic NMDA currents (NMDA currents): devoid of any direct effects | therapeutic index (rat pups (PND7) [1]): about 22 | LD50 [2]: 61.9 ± 4.6 mg/kg | inhibition at 3 µM [3]: 38 ± 4% | increase in PWLs compared to incised paws injected with vehicle ([4]; 16 μg i.pl. repeated at 2 hours, day 1, 2, 3 and 5, day 1 to day 5): 50-90% | thermal PWL of incised paw ([4]; 16 μg i.pl. single injection, day 1 after incision): about 6 seconds | thermal PWL of incised paw vs vehicle ([4]; 16 μg i.pl. single injection, day 2): not significantly different | effect on thermal PWLs vs vehicle in incised paws ([4]; 16 μg i.t. applied 2 hours after incision): little effect | thermal PWL of unincised paws ([4]; 16 μg i.t. at 24 and 48 hours post-surgery): 14 to 15 s | thermal PWL of incised paws ([4]; 16 μg i.t., 48 hours post-surgery, 180 minutes post injection, vehicle about 4): about 9 seconds | thermal PWL of incised paw ([4]; 48 μg i.pl. single injection, day 1 post incision): about 6.5 seconds | thermal PWL of incised paw ([4]; 48 μg i.pl. single injection, day 2 post incision): about 7 seconds | time after surgery for which hyperalgesia is reduced ([4]; data not shown): at least 48 hours | ED50 [5]: 16 ± 0.4 mg/kg | days required to reach learning criterion in RAM (rats [6]; 3β-OH at 10 mg/kg, ketamine at 40 mg/kg at PND 7, tested from PND 53): indistinguishable from vehicle animals | rats reaching criterion in the allotted time (rats [6]; p-p plot): 100% | rats that had reached criterion at the same point of training (p-p plot) (rats [6]; rat, in vivo): roughly half | maximal block of T-current ([7]; DRG neurons): 100% | IC50 ([7]; acutely dissociated DRG cells, read-out: IC50, block of T-currents in DRG cells): 3 µM | cardiac arrhythmias (adult monkeys): did not notice cardiac arrhythmias | sensorimotor responses after vs before injection (rats [8]): did not differ significantly | effect on GABAA currents (GABAA currents): devoid of any direct effects | IC50 [9]: 2 µM | calculated EC50 (duration of LORR) (rat pups (PND7) [10]; PND7 rat pups, i.p.): 34.5 ± 3.7 mg/kg | ED50 (rat pups (PND7) [10]; Rattus norvegicus, ip, read-out: calculated ED50 for LORR): 2.9 ± 0.28 mg/kg | equipotent dose comparable to ketamine 40 mg/kg (rat pups (PND7) [10]; i.p., based on LORR): 10 mg/kg | equipotent single dose comparable to ketamine 20 mg/kg (rat pups (PND7) [10]; i.p., based on LORR): 5 mg/kg | apoptotic (caspase-3) activation compared with vehicle ([11]; 5 mg/kg i.p. every hour, six doses, all examined regions except subiculum): did not cause significant apoptotic activation | caspase-3 activation, twice higher dose compared with lower dose ([11]; 10 mg/kg vs 5 mg/kg i.p., 6 doses hourly): small increase | caspase-3 activation at higher dose compared with vehicle ([11]; 3β-OH 10 mg/kg or ketamine 40 mg/kg i.p., 6 doses hourly, 3β-OH: except subiculum): no significant increase | duration of LORR ([12]; 75 mg/kg dose): up to 50 min | ED50 ([12]; Mus musculus, ip, adult female C57Bl/6 mice): 46 ± 2 mg/kg | daily weight gain among the groups [13]: no difference | prolongation of PWLs over pre-injection baseline (adult naïve rats; i.t. 0.003 to 16 μg, 60 minutes post-injection): up to 80% | increase of PWLs (adult naïve rats; i.t., higher doses, 150 minutes post-injection): 25-30%
